Assay results taken from US12404289B2 (Gilead Sciences, Inc., priority 2020, dated 2025).
Like-named read-outs stand apart in the source and are kept apart here.

Key:
Type in all cases: cell-based
[1] = system: SARS-CoV-2; assay: SARS-CoV-2 antiviral assay (A549-hACE2, Nano luciferase); details: A549-hACE2 cells, SARS-CoV2-Nano, MOI 0.025, 48 h, Table 4, read-out: EC50 SARS CoV2
[2] = system: Recombinant respiratory syncytial virus expressing the firefly luciferase protein (RSV-Fluc); assay: microbe, parasite or virus in culture; details: Table 4
[3] = system: Respiratory syncytial virus (RSV) strain A2; assay: Hep-2 RSV2 384-well assay (EC50-HEP2-384); details: HEp-2 cells, RSV A2, MOI=4, 4 days
[4] = system: Respiratory syncytial virus (RSV) strain A2; assay: RSV antiviral assay (HEp-2, 96 well); details: Table 3
[5] = Severe acute respiratory syndrome coronavirus 2, 48 h
[6] = human respiratory syncytial virus, NHBE, 72 h, read-out: EC50 RSVFluc NHBE 96, NHBE cells, RSV-Fluc, MOI of 0.1, three days, 96 well
[7] = human respiratory syncytial virus, HEp-2, 96 h, Table 3
[8] = read-out: EC50 RSVFluc NHBE 96, NHBE cells, RSV-Fluc, MOI of 0.1, three days, 96 well
[9] = human respiratory syncytial virus, HEp-2, 96 h, read-out: EC50 RSV HEP2 96, HEp-2 cells, RSV A2, MOI=4, 4 days, 96 well
[10] = read-out: EC50 RSV HEP2 96, HEp-2 cells, RSV A2, MOI=4, 4 days, 96 well

Compound | EC50 [1, 5] | EC50 [2, 6] | EC50 [1] | EC50 [2, 8] | EC50 [4, 9] | other results
COC(C)(C)COC(=O)[C@H](C)NP(=O)(OC[C@H]1O[C@@](C#N)(c2ccc3c(N)ncnn23)[C@H](OC(=O)C(C)C)[C@@H]1OC(=O)C(C)C)Oc1cccc2ccccc12 (stereo partly drawn) [Example 133, (2R,3R,4R,5R)-2-(4-aminopyrrolo[2,1-f][1,2,4]triazin-7-yl)-2-cyano-5-((((((S)-1-(2-methoxy-2-methylpropoxy)-1-oxopropan-2-yl)amino)(naphthalen-1-yloxy)phosphoryl)oxy)methyl)tetrahydrofuran-3,4-diyl bis(2-methylpropanoate)] | 36.9 nM | 13.8 nM | – | – | – | EC50 [3, 7]: 33.6 nM
CCOC(=O)[C@H](C)NP(=O)(OC[C@H]1O[C@@](C#N)(c2ccc3c(N)ncnn23)[C@H](OC(C)=O)[C@@H]1OC(C)=O)Oc1ccc(C23CC(C2)C3)cc1 (single isomer, unassigned) [Example 42a] | – | 9.56 nM | 121 nM | – | – | EC50 [3, 7]: 68.3 nM
CC(C)C(=O)O[C@H]1[C@@H](OC(=O)C(C)C)[C@](C#N)(c2ccc3c(N)ncnn23)O[C@@H]1COP(=O)(N[C@@H](C)C(=O)OC1CCC1)Oc1ccccc1 (single isomer, unassigned) [Example 21a] | – | – | 125 nM | 37.4 nM | – | EC50 ([3]; Table 1): 92 nM
CCC(CC)COC(=O)[C@H](C)NP(=O)(OC[C@H]1O[C@@](C#N)(c2ccc3c(N)ncnn23)[C@H](O)[C@@H]1O)Oc1ccc2ccccc2c1 (stereo partly drawn) [Intermediate S3, 2-ethylbutyl ((((2R,3S,4R,5R)-5-(4-aminopyrrolo[2,1-f][1,2,4]triazin-7-yl)-5-cyano-3,4-dihydroxytetrahydrofuran-2-yl)methoxy)(naphthalen-2-yloxy)phosphoryl)-L-alaninate] | 113 nM | 5.51 nM | – | – | – | –
CCC(=O)O[C@H]1[C@@H](OC(=O)CC)[C@](C#N)(c2ccc3c(N)ncnn23)O[C@@H]1COP(=O)(N[C@@H](C)C(=O)OC1CCC1)Oc1ccc(C(C)(C)C)cc1 (single isomer, unassigned) [Example 32a] | – | 16.7 nM | 157 nM | – | – | EC50 [3, 7]: 25.4 nM
C[C@H](NP(=O)(OC[C@H]1O[C@@](C#N)(c2ccc3c(N)ncnn23)[C@H](O)[C@@H]1O)Oc1ccc(C(C)(C)C)cc1)C(=O)OC1CC2(CCC2)C1 (stereo partly drawn) [Example 65, spiro[3.3]heptan-2-yl (2S)-2-[[[(2R,3S,4R,5R)-5-(4-aminopyrrolo[2,1-f][1,2,4]triazin-7-yl)-5-cyano-3,4-dihydroxy-tetrahydrofuran-2-yl]methoxy-(4-tert-butylphenoxy)phosphoryl]amino]propanoate] | – | – | 265 nM | 3.24 nM | 336 nM | –
COC(C)(C)COC(=O)[C@H](C)NP(=O)(OC[C@H]1O[C@@](C#N)(c2ccc3c(N)ncnn23)[C@H](OC(=O)C(C)C)[C@@H]1OC(=O)C(C)C)Oc1ccc(C(C)(C)C)cc1 (stereo partly drawn) [Example 116, (2R,3R,4R,5R)-2-(4-aminopyrrolo[2,1-f][1,2,4]triazin-7-yl)-5-((((4-(tert-butyl)phenoxy)(((S)-1-(2-methoxy-2-methylpropoxy)-1-oxopropan-2-yl)amino)phosphoryl)oxy)methyl)-2-cyanotetrahydrofuran-3,4-diyl bis(2-methylpropanoate)] | 56 nM | 25 nM | – | – | 11.2 nM | –
CC(C)C(=O)O[C@H]1[C@@H](OC(=O)C(C)C)[C@](C#N)(c2ccc3c(N)ncnn23)O[C@@H]1COP(=O)(N[C@@H](C)C(=O)OCC1CC1)Oc1ccc(C(C)(C)C)cc1 (stereo partly drawn) [Example 104a, (2R,3R,4R,5R)-2-(4-aminopyrrolo[2,1-f][1,2,4]triazin-7-yl)-5-((((4-(tert-butyl)phenoxy)(((S)-1-(cyclopropylmethoxy)-1-oxopropan-2-yl)amino)phosphoryl)oxy)methyl)-2-cyanotetrahydrofuran-3,4-diyl bis(2-methylpropanoate)] | 234 nM | 10.8 nM | – | – | – | EC50 [3, 7]: 39 nM
CC(C)C(=O)O[C@H]1[C@@H](OC(=O)C(C)C)[C@](C#N)(c2ccc3c(N)ncnn23)O[C@@H]1COP(=O)(N[C@@H](C)C(=O)OC1CCC1)Oc1ccc(C(C)(C)C)cc1 (single isomer, unassigned) [Example 50b] | – | – | 239 nM | 5.36 nM | – | EC50 [4, 10]: 8.52 nM
CC(C)COC(=O)[C@H](C)NP(=O)(OC[C@H]1O[C@@](C#N)(c2ccc3c(N)ncnn23)[C@H](OC(=O)C(C)C)[C@@H]1OC(=O)C(C)C)Oc1ccc(C(C)(C)C)cc1 (stereo partly drawn) [Example 122, (2R,3R,4R,5R)-2-(4-aminopyrrolo[2,1-f][1,2,4]triazin-7-yl)-5-((((4-(tert-butyl)phenoxy)(((S)-1-isobutoxy-1-oxopropan-2-yl)amino)phosphoryl)oxy)methyl)-2-cyanotetrahydrofuran-3,4-diyl bis(2-methylpropanoate)] | 167 nM | 8.73 nM | – | – | 16.4 nM | –
CCOC(=O)[C@H](C)NP(=O)(OC[C@H]1O[C@@](C#N)(c2ccc3c(N)ncnn23)[C@H](OC(=O)C(C)C)[C@@H]1OC(=O)C(C)C)Oc1ccc(C(C)(C)C)cc1 (single isomer, unassigned) [Example 18a] | 312 nM | 22.2 nM | – | – | – | EC50 ([3]; human respiratory syncytial virus, HEp-2, 96 h, Table 1): 65.4 nM
CC(C)C(=O)O[C@H]1[C@@H](OC(=O)C(C)C)[C@](C#N)(c2ccc3c(N)ncnn23)O[C@@H]1COP(=O)(N[C@@H](C)C(=O)OC1CCC1)Oc1cccc2ccccc12 (single isomer, unassigned) [Example 55b] | – | – | 108 nM | 6.12 nM | – | EC50 [4, 10]: 7.44 nM
CCOC(=O)[C@H](C)NP(=O)(OC[C@H]1O[C@@](C#N)(c2ccc3c(N)ncnn23)[C@H](OC(C)=O)[C@@H]1OC(C)=O)Oc1ccc(C23CC(C2)C3)cc1 (single isomer, unassigned) [Example 42b] | – | – | 51.3 nM | 8 nM | – | EC50 ([3]; Table 3): 68.8 nM
CCOC(=O)[C@H](C)NP(=O)(OC[C@H]1O[C@@](C#N)(c2ccc3c(N)ncnn23)[C@H](OC(=O)C(C)C)[C@@H]1OC(=O)C(C)C)Oc1cccc2ccccc12 (stereo partly drawn) [Example 67, [(2R,3R,4R,5R)-5-(4-aminopyrrolo[2,1-f][1,2,4]triazin-7-yl)-5-cyano-2-[[[[(1S)-2-ethoxy-1-methyl-2-oxo-ethyl]amino]-(1-naphthyloxy)phosphoryl]oxymethyl]-4-(2-methylpropanoyloxy)tetrahydrofuran-3-yl] 2-methylpropanoate] | 27.2 nM | 8.72 nM | – | – | 18 nM | –
CC(C)C(=O)O[C@H]1[C@@H](OC(=O)C(C)C)[C@](C#N)(c2ccc3c(N)ncnn23)O[C@@H]1COP(=O)(N[C@@H](C)C(=O)OCC1CCC1)Oc1ccccc1 (stereo partly drawn) [Example 117, (2R,3R,4R,5R)-2-(4-aminopyrrolo[2,1-f][1,2,4]triazin-7-yl)-2-cyano-5-((((((S)-1-(cyclobutylmethoxy)-1-oxopropan-2-yl)amino)(phenoxy)phosphoryl)oxy)methyl)tetrahydrofuran-3,4-diyl bis(2-methylpropanoate)] | 192 nM | 22.1 nM | – | – | 11 nM | –
CC(C)C(=O)O[C@H]1[C@@H](OC(=O)C(C)C)[C@](C#N)(c2ccc3c(N)ncnn23)O[C@@H]1COP(=O)(N[C@@H](C)C(=O)OC1CCC1)Oc1ccc(C2CC2)cc1 (some centres unmarked) [Example 52a] | 64.5 nM | 20.8 nM | – | – | 20.5 nM | –
CC(C)C(=O)O[C@H]1[C@@H](OC(=O)C(C)C)[C@](C#N)(c2ccc3c(N)ncnn23)O[C@@H]1COP(=O)(N[C@@H](C)C(=O)OC1CCC1)Oc1cccc2ccccc12 (single isomer, unassigned) [Example 55a] | 104 nM | – | – | 19.9 nM | 7.09 nM | –
CC(=O)O[C@H]1[C@@H](OC(C)=O)[C@](C#N)(c2ccc3c(N)ncnn23)O[C@@H]1COP(=O)(N[C@@H](C)C(=O)OC1CC2(CCC2)C1)Oc1ccc(C(C)(C)C)cc1 (stereo partly drawn) [Example 80, Spiro[3.3]heptan-2-yl (2S)-2-[[(4-tert-butylphenoxy)-[[(2R,3R,4R,5R)-3,4-diacetoxy-5-(4-aminopyrrolo[2,1-f][1,2,4]triazin-7-yl)-5-cyano-tetrahydrofuran-2-yl]methoxy]phosphoryl]amino]propanoate] | – | – | 310 nM | 16.5 nM | 16.9 nM | –
CCC(C)(C)COC(=O)[C@H](C)NP(=O)(OC[C@H]1O[C@@](C#N)(c2ccc3c(N)ncnn23)[C@H](OC(=O)C(C)C)[C@@H]1OC(=O)C(C)C)Oc1ccc(C(C)(C)C)cc1 (stereo partly drawn) [Example 126, (2R,3R,4R,5R)-2-(4-aminopyrrolo[2,1-f][1,2,4]triazin-7-yl)-5-((((4-(tert-butyl)phenoxy)(((S)-1-(2,2-dimethylbutoxy)-1-oxopropan-2-yl)amino)phosphoryl)oxy)methyl)-2-cyanotetrahydrofuran-3,4-diyl bis(2-methylpropanoate)] | 77.4 nM | – | – | – | 17 nM | EC50 [3, 7]: 116 nM
CC(C)C(=O)O[C@H]1[C@@H](OC(=O)C(C)C)[C@](C#N)(c2ccc3c(N)ncnn23)O[C@@H]1COP(=O)(N[C@@H](C)C(=O)OC1CCC1)Oc1ccc(C(C)(C)C)cc1 (single isomer, unassigned) [Example 50a] | – | – | 38.8 nM | 27.5 nM | – | EC50 [4, 10]: 21.3 nM
